The values that follow come from US9932346B2, “Pyrrolopyrimidines for use in influenza virus infection” (Janssen Sciences Ireland UC, priority 2014, dated 2018).

pIC50: −log10 of the molar value. A value given as a limit tells only on which side of the number the result lay.

The test system of series [1] is influenza virus A/Taiwan/1/86 (H1N1). Description: organism not typed. It is filed as cell-based. The conditions noted are these: MDCK cells infected with influenza A/Taiwan/1/86 (H1N1), three days post-virus exposure, CPE by ATP levels.
The nature of series [2]: in vitro. The conditions noted are these: dog.
Series [3] has as its system MDCK cells. Conditions: dog, 3 days.

By pIC50 is commonly meant the negative decadic logarithm of the IC50, by convention in mol/L. A low value points to a large IC50. With `O=C(N[C@H]1CCC[C@@H](Nc2nc(C3CNc4ncncc43)ncc2F)C1)OCc1ccccc1` (some centres unmarked) [Compound 28], in series [1] (MDCK, 72 h), the pIC50 is 6.45. For the same molecule, in series [2], the CC50 at 3 days is over 25000 nM.

In turn, `O=C(O)[C@H]1C2CCC(CC2)[C@@H]1Nc1nc(-c2c[nH]c3ncncc23)c(C(F)(F)F)cc1F` [Compound 44] showed a pIC50 in series [1] (MDCK, 72 h) of 8.52. For the same molecule, the CC50 at 3 days in series [2] was 9400 nM.

In series [1] (MDCK, 72 h), `O=C(N[C@H]1CCC[C@@H](Nc2nc(-c3c[nH]c4ncncc34)cnc2F)C1)N1CCCC1` [Compound 46] gave a pIC50 of 8.30. Further, the CC50 at 3 days in series [2] was over 25000 nM.

Take `Cn1cnc(C(=O)N[C@H]2CCC[C@@H](Nc3nc(-c4c[nH]c5ncncc45)ncc3F)C2)c1` [Compound 48]: the pIC50 in series [1] was 7.46. This molecule displayed a CC50 in series [3] of over 25000 nM.

Molecule `CC1(C(CC(=O)O)Nc2nc(-c3c[nH]c4ncncc34)ncc2F)CCCC1` (centres unmarked) [Compound 53] had a pIC50 in series [1] (MDCK, 72 h) of 6.19. This molecule displayed a CC50 at 3 days in series [2] of over 25000 nM.

In the case of `Fc1cnc(-c2c[nH]c3ncncc23)nc1NC1[C@H]2CC3C[C@H](C2)C[C@H]1C3` (some centres unmarked) [Compound 57], the pIC50 in series [1] (MDCK, 72 h) was 6.18. In series [2], this molecule displayed a CC50 at 3 days of 5200 nM.

In the case of `CC(C)Nc1nc(-c2c[nH]c3ncncc23)ncc1F` [Compound 61], the pIC50 in series [1] (MDCK, 72 h) is 6.20. Further, the CC50 at 3 days in series [2] is over 25000 nM.

In series [1] (MDCK, 72 h), `Fc1cnc(-c2c[nH]c3ncncc23)nc1NC1CCCCC1` [Compound 65] showed a pIC50 of 6.09. Besides, in series [2], the CC50 at 3 days was 11600 nM.

`COC(=O)CC(Nc1nc(-c2c[nH]c3ncncc23)ncc1F)C(C)(C)C` (centres unmarked) [Compound 69] gave a pIC50 in series [1] (MDCK, 72 h) of 6.08. Besides, the CC50 at 3 days in series [2] is over 25000 nM.

In the case of `CC[C@@]1(C(=O)O)CCCC[C@H]1Nc1nc(-c2c[nH]c3ncncc23)ncc1F` [Compound 72], the pIC50 in series [1] (MDCK, 72 h) was 6.07. The molecule also gave a CC50 at 3 days in series [2] of 10300 nM.

In series [1] (MDCK, 72 h), `Nc1ncnc2[nH]cc(-c3ncc(F)c(N[C@@H]4CCC[C@H](C(=O)N5CCCC5)C4)n3)c12` [Compound 79] gave a pIC50 of 6.82. For the same molecule, the CC50 at 3 days in series [2] was over 25000 nM.

In turn, `Cc1[nH]c2ncncc2c1-c1ncc(F)c(N[C@@H]2CCC[C@H](NC(=O)N3CCCC3)C2)n1` [Compound 83] had a pIC50 in series [1] (MDCK, 72 h) of 6.15. In series [2], the CC50 at 3 days was over 25000 nM.

As for `Cc1ncnc2[nH]cc(-c3ncc(F)c(N[C@@H]4CCC[C@H](NC(=O)N5CCCC5)C4)n3)c12` [Compound 87], the pIC50 in series [1] (MDCK, 72 h) is 6.33. Also, in series [2], the CC50 at 3 days was over 25000 nM.

The molecule `Cc1ncc2c(-c3ncc(F)c(N[C@@H]4CCC[C@H](NC(=O)N5CCCC5)C4)n3)c[nH]c2n1` [Compound 92] gave a pIC50 in series [1] (MDCK, 72 h) of 6.74. Also, in series [2], the CC50 at 3 days was over 25000 nM.

In series [1] (MDCK, 72 h), `N#Cc1cc(F)c(N[C@@H]2CCC[C@H](NC(=O)c3ccccn3)C2)nc1-c1c[nH]c2ncncc12` [Compound 98] gave a pIC50 of 8.70. This molecule came in with a CC50 at 3 days in series [2] of over 25000 nM.

On to `N#Cc1cc(F)c(N[C@H]2C3CCC(CC3)[C@@H]2C(=O)O)nc1-c1c[nH]c2ncncc12` [Compound 101], for which the pIC50 in series [1] (MDCK, 72 h) was 7.44. Further, the CC50 at 3 days in series [2] was 10500 nM.
